≈ marks a conversion by molar mass, not a printed value.
System: KB
Experiment: Cytotoxicity against human KB cells
Format: functional
Conditions: read-out: ED50 (the source's name)

SMILES	EC50 [µg/mL]
O=C1OCC/C1=C\OCCCO/C=C1\CCOC1=O	> 100
O=C1OCC/C1=C\OC(=O)c1ccccc1	100 (≈ 458 µM)
O=C1OCC/C1=C\CCC/C=C1\CCOC1=O	> 100
C=C1C(=O)O[C@@H]2[C@@H]3[C@H](C[C@H]12)[C@@H]1C=C[C@@H]3C1	1 (≈ 4.94 µM)
C=C1CC(CCCC2CC(=C)C(=O)O2)OC1=O (stereo not drawn)	4 (≈ 16.9 µM)
C=C1C(=O)O[C@@H]2CCCC[C@@H]12 (relative stereo)	38 (≈ 250 µM)
C=C(C)C(=O)O[C@H]1CC2=C[C@@H](C[C@@]3(C)O[C@@H]3[C@H]3OC(=O)C(=C)[C@@H]31)OC2=O [ELEPHANTOPIN]	1 (≈ 2.77 µM)
C=C1CCOC1=O [TULIPALINE A]	16 (≈ 163 µM)

— ChEMBL document CHEMBL3244239, “Potential antitumor agents. Synthesis, reactivity, and cytoxicity of alpha-methylene carbonyl compounds” (1978)
